Like-named read-outs stand apart in the source and are kept apart here. Starred links: 1 amine or outer side, 2 acyl side, 3 side chain; linkers in the order of their positions; H or OH if unused. Non-standard residues stand in square brackets, D forms with d. Residues, ends and D or L forms follow the SMILES beside them. *: point of attachment. Phe(4-CF3) = N[C@@H](Cc1ccc(C(F)(F)F)cc1)C(=O)O; NMePhe(3-Cl) = CN[C@@H](Cc1cccc(Cl)c1)C(=O)O; NMeF = CN[C@@H](Cc1ccccc1)C(=O)O; NMeGABA = CN(CCCC(=O)[*:2])[*:1]; NMeI = CC[C@H](C)[C@H](NC)C(=O)O; NMeβAla = CN(CCC(=O)[*:2])[*:1]; Aoc(2) = CCCCCC[C@H](N)C(=O)O; NMeL = CN[C@@H](CC(C)C)C(=O)O; NMeV = CN[C@H](C(=O)O)C(C)C; NMeA = CN[C@@H](C)C(=O)O; dNMeA = CN[C@H](C)C(=O)O; β3hA = C[C@H](N)CC(=O)O; Sar = CNCC(=O)O; tBu = CC(C)(C)*
What was measured:
[1] = PAMPA (parallel artificial membrane permeability assay); type: in vitro ADME; details: for Papp at 18 hours, 50 µM: PAMPA
Procedure, shortened: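 Artificial membrane was 10% (w/v) egg lecithin plus 0.5% (w/v) cholesterol in dodecane on a PVDF filter. A 10 mM DMSO stock was added at 0.5% (v/v) to donor buffer (50 mM MOPSO, pH 6.5, 5.0% glycocholic acid). After 18 h at 37 °C, LC/MS or LC/UV gave donor and acceptor levels for Pe.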

[2] = Metabolic stability in human hepatic microsome; type: in vitro ADME; details: microsomes
[3] = membrane permeation rate (Pe), 50 mM MOPSO buffer pH 6.5 with 5.0% glycocholic acid, 37° C., 18 hours
[4] = pH 7.4, human hepatic microsome, NADPH(+), read-out: CL NADPH(+)
[5] = membrane permeation rate (Pe), 50 mM MOPSO buffer pH 6.5 with 5.0% glycocholic acid, 37° C., 18 hours, read-out: iPAMPA Pe

Structure (SMILES) | Papp at 18 hours, 50 µM ([1]; pH 6.5) | microsomal CLint at 1 uM ([2]; human, pH 7.4, CL NADPH(+)) | iPAMPA Pe [1, 3] | microsomal CLint at 1 uM [2, 4] | Papp at 18 hours, 50 µM [1, 5]
CC[C@H](C)[C@@H]1NC(=O)[C@H](C)NC(=O)C[C@H](C)NC(=O)[C@H](CC(C)C)NC(=O)[C@H](CC(C)C)NC(=O)[C@H](C(C)C)NC(=O)[C@H](C)N(C)C(=O)[C@H](Cc2ccc(C(F)(F)F)cc2)NC(=O)CNC(=O)[C@H]([C@@H](C)O)NC(=O)[C@H](CC(C)C)N(C)C(=O)[C@@H]2CCCN2C1=O [DP-807] (cyclo(AIP[NMeL]TG[Phe(4-CF3)][NMeA]VLL[β3hA])) | 15 ×10⁻⁶ cm/s | 81 µL/min/mg |  |  | 
CC[C@H](C)[C@@H]1NC(=O)[C@H](C)NC(=O)C[C@H](C)NC(=O)[C@H](CC(C)C)NC(=O)[C@H](CC(C)C)NC(=O)[C@H](C(C)C)NC(=O)[C@H](C)N(C)C(=O)[C@H](CC(C)C)NC(=O)CNC(=O)[C@H]([C@@H](C)O)NC(=O)[C@H](CC(C)C)N(C)C(=O)[C@@H]2CCCN2C1=O [DP-808] (cyclo(AIP[NMeL]TGL[NMeA]VLL[β3hA])) | 3.3 ×10⁻⁶ cm/s | 33 µL/min/mg |  |  | 
CC(C)C[C@H]1C(=O)N(C)[C@@H](CC(C)C)C(=O)N[C@@H]([C@@H](C)O)C(=O)N(C)[C@@H](Cc2cccc(Cl)c2)C(=O)NCC(=O)N(C)[C@@H](C(C)C)C(=O)N[C@@H](Cc2ccc(C(F)(F)F)cc2)C(=O)N[C@@H](C)CC(=O)N(C)CCC(=O)N[C@@H](COC(C)(C)C)C(=O)N1C [DP-809] (cyclo(G[NMeV][Phe(4-CF3)][β3hA][NMeβAla]S(tBu)[NMeL][NMeL]T[NMePhe(3-Cl)])) |  |  | 7.0E−05 | 201 µL/min/mg | 
CC[C@H](C)[C@H]1C(=O)NCC(=O)N(C)[C@@H](C)C(=O)N[C@@H](CC(C)C)C(=O)N[C@@H](C)CC(=O)N(C)[C@@H](C)C(=O)N[C@@H](CC(C)C)C(=O)N(C)[C@@H](C)C(=O)N[C@@H]([C@@H](C)O)C(=O)N2CCC[C@H]2C(=O)N(C)[C@@H](Cc2cccc(Cl)c2)C(=O)N[C@@H](Cc2ccc(C(F)(F)F)cc2)C(=O)N1C [DP-810] (cyclo(G[NMeA]L[β3hA][NMeA]L[NMeA]TP[NMePhe(3-Cl)][Phe(4-CF3)][NMeI])) | 14 ×10⁻⁶ cm/s | 46 µL/min/mg |  |  | 
CC[C@H](C)[C@@H]1NC(=O)[C@H](C)N(C)C(=O)[C@@H](C)N(C)C(=O)C[C@H](C)NC(=O)[C@H](CC(C)C)N(C)C(=O)[C@H](C)N(C)C(=O)[C@H](Cc2cccc(Cl)c2)N(C)C(=O)[C@H]([C@@H](C)O)NC(=O)[C@H](Cc2cccc(Cl)c2)N(C)C(=O)[C@H](CC(C)C)N(C)C1=O [DP-811] (cyclo(I[NMeL][NMePhe(3-Cl)]T[NMePhe(3-Cl)][NMeA][NMeL][β3hA][dNMeA][NMeA])) |  |  | 7.0E−05 | 241 µL/min/mg | 
CC[C@H](C)[C@@H]1NC(=O)[C@H](CC(C)C)N(C)C(=O)[C@H](Cc2cccc(Cl)c2)N(C)C(=O)[C@@H](C(C)C)NC(=O)C[C@H](C)NC(=O)[C@H](CC(C)C)N(C)C(=O)[C@H](C)N(C)C(=O)[C@H]([C@@H](C)O)NC(=O)[C@H](Cc2cccc(Cl)c2)N(C)C(=O)[C@H](C)N(C)C1=O [DP-812] (cyclo(I[NMeA][NMePhe(3-Cl)]T[NMeA][NMeL][β3hA][dV][NMePhe(3-Cl)][NMeL])) |  |  |  | 222 µL/min/mg | 34 ×10⁻⁶ cm/s
CC[C@H](C)[C@@H]1NC(=O)[C@H](CC(C)C)N(C)C(=O)[C@H](CC(C)C)N(C)C(=O)[C@@H](C(C)C)NC(=O)C[C@H](C)NC(=O)[C@H](CC(C)C)N(C)C(=O)[C@H](C)N(C)C(=O)[C@H]([C@@H](C)O)NC(=O)[C@H](CC(C)C)N(C)C(=O)[C@H](C)N(C)C1=O [DP-813] (cyclo(I[NMeA][NMeL]T[NMeA][NMeL][β3hA][dV][NMeL][NMeL])) |  |  |  | 195 µL/min/mg | 30 ×10⁻⁶ cm/s
CC(C)C[C@@H]1NC(=O)[C@H](C)NC(=O)C[C@H](C)NC(=O)[C@H](C(C)C)N(C)C(=O)[C@H](Cc2ccc(C(F)(F)F)cc2)NC(=O)[C@H](CC(C)C)N(C)C(=O)[C@H]([C@@H](C)O)NC(=O)[C@H](Cc2ccc(C(F)(F)F)cc2)NC(=O)[C@H](C)N(C)C(=O)CNC(=O)[C@H](CC(C)C)N(C)C(=O)[C@H](C)N(C)C1=O [DP-814] (cyclo(AL[NMeA][NMeL]G[NMeA][Phe(4-CF3)]T[NMeL][Phe(4-CF3)][NMeV][β3hA])) |  |  |  | 22 µL/min/mg | 57 ×10⁻⁶ cm/s
CC[C@H](C)[C@H]1C(=O)NCC(=O)N[C@@H](C)CC(=O)N(C)[C@H](C)C(=O)N[C@@H](Cc2ccccc2)C(=O)N(C)[C@@H](CC(C)C)C(=O)N[C@@H](COC(C)(C)C)C(=O)N[C@@H](Cc2ccccc2)C(=O)N2CCC[C@H]2C(=O)N[C@@H]([C@@H](C)O)C(=O)N[C@@H](CC(C)C)C(=O)N1C [DP-815] (cyclo(F[NMeL]S(tBu)FPTL[NMeI]G[β3hA][dNMeA])) | 42 ×10⁻⁶ cm/s | 104 µL/min/mg |  |  | 
CC[C@H](C)[C@H]1C(=O)N(C)[C@@H](C)C(=O)N(C)[C@@H](CC(C)C)C(=O)N[C@@H](COC(C)(C)C)C(=O)N(C)[C@@H](CC(C)C)C(=O)N[C@@H](C)CC(=O)N(C)[C@@H](C)C(=O)N(C)[C@@H](Cc2ccccc2)C(=O)N[C@@H](C)C(=O)N(C)[C@@H](CC(C)C)C(=O)N[C@@H]([C@@H](C)O)C(=O)N1C [DP-816] (cyclo(A[NMeL]T[NMeI][NMeA][NMeL]S(tBu)[NMeL][β3hA][NMeA][NMeF])) |  |  |  | 192 µL/min/mg | 32 ×10⁻⁶ cm/s
CC[C@H](C)[C@H]1C(=O)N(C)[C@@H](C)C(=O)N(C)[C@@H](CC(C)C)C(=O)N[C@@H](COC(C)(C)C)C(=O)N(C)[C@@H](CC(C)C)C(=O)N[C@@H](C)CC(=O)N(C)[C@@H](C)C(=O)N(C)[C@@H](Cc2ccccc2)C(=O)N[C@@H](CC(C)C)C(=O)N(C)[C@@H](CC(C)C)C(=O)N[C@@H]([C@@H](C)O)C(=O)N1C [DP-817] (cyclo(L[NMeL]T[NMeI][NMeA][NMeL]S(tBu)[NMeL][β3hA][NMeA][NMeF])) |  |  |  | 165 µL/min/mg | 25 ×10⁻⁶ cm/s
CC(C)C[C@@H]1NC(=O)[C@H](CC(C)C)N(C)C(=O)[C@H](C)NC(=O)[C@H](C(C)C)N(C)C(=O)CN(C)C(=O)[C@H]([C@@H](C)O)NC(=O)[C@H](C)N(C)C(=O)[C@H](CC(C)C)N(C)C(=O)[C@@H](C)NC(=O)C[C@H](C)NC1=O [DP-818] (cyclo(A[NMeL]L[β3hA][dA][NMeL][NMeA]T[Sar][NMeV])) |  |  |  | 1 µL/min/mg | 2 ×10⁻⁶ cm/s
CC[C@H](C)[C@@H]1NC(=O)[C@H](C)N(C)C(=O)[C@H]([C@@H](C)O)NC(=O)[C@H](C(C)C)N(C)C(=O)[C@@H](C)N(C)C(=O)C[C@H](C)NC(=O)[C@H](Cc2ccccc2)NC(=O)[C@H](C)NC(=O)[C@H](Cc2ccccc2)N(C)C1=O [DP-819] (cyclo(AF[β3hA][dNMeA][NMeV]T[NMeA]I[NMeF])) |  |  |  | 134 µL/min/mg | 30 ×10⁻⁶ cm/s
CC[C@H](C)[C@H]1C(=O)N[C@@H](COC(C)(C)C)C(=O)N(C)[C@@H](C(C)C)C(=O)N[C@@H](C)CC(=O)N(C)[C@@H](C)C(=O)N(C)[C@@H](Cc2ccccc2)C(=O)N[C@@H](CC(C)C)C(=O)N(C)[C@@H](CC(C)C)C(=O)N[C@@H]([C@@H](C)O)C(=O)N(C)CC(=O)N1C [DP-820] (cyclo(L[NMeL]T[Sar][NMeI]S(tBu)[NMeV][β3hA][NMeA][NMeF])) |  |  |  | 511 µL/min/mg | 48 ×10⁻⁶ cm/s
CC[C@H](C)[C@H]1C(=O)N[C@@H](COC(C)(C)C)C(=O)N(C)[C@@H](C(C)C)C(=O)N[C@@H](C)CC(=O)N(C)[C@@H](CC(C)C)C(=O)N(C)[C@@H](Cc2ccccc2)C(=O)N[C@@H](CC(C)C)C(=O)N(C)[C@@H](CC(C)C)C(=O)N[C@@H]([C@@H](C)O)C(=O)N(C)CC(=O)N1C [DP-821] (cyclo(L[NMeL]T[Sar][NMeI]S(tBu)[NMeV][β3hA][NMeL][NMeF])) |  |  |  | 547 µL/min/mg | 62 ×10⁻⁶ cm/s
CCCCCC[C@@H]1NC(=O)[C@H](Cc2ccccc2)N(C)C(=O)[C@H](C)N(C)C(=O)C[C@H](C)NC(=O)[C@H](C(C)C)N(C)C(=O)[C@H](COC(C)(C)C)NC(=O)[C@H](C)N(C)C(=O)CN(C)C(=O)[C@H]([C@@H](C)O)NC(=O)[C@H](CC(C)C)N(C)C1=O [DP-822] (cyclo([Aoc(2)][NMeL]T[Sar][NMeA]S(tBu)[NMeV][β3hA][NMeA][NMeF])) |  |  |  | 518 µL/min/mg | 37 ×10⁻⁶ cm/s
CC[C@H](C)[C@@H]1NC(=O)[C@H](CC(C)C)N(C)C(=O)[C@H](C)NC(=O)CCCN(C)C(=O)C[C@H](C)NC(=O)[C@H]([C@@H](C)O)NC(=O)[C@H](Cc2ccccc2)NC(=O)[C@H](C(C)C)N(C)C(=O)[C@H](CC(C)C)N(C)C1=O [DP-823] (cyclo(A[NMeL]I[NMeL][NMeV]FT[β3hA][NMeGABA])) |  |  |  | 254 µL/min/mg | 31 ×10⁻⁶ cm/s
CC[C@H](C)[C@@H]1NC(=O)[C@H](CC(C)C)N(C)C(=O)[C@H](C)NC(=O)CCCN(C)C(=O)C[C@H](C)NC(=O)[C@H]([C@@H](C)O)NC(=O)[C@H](Cc2ccccc2)NC(=O)[C@H](C(C)C)N(C)C(=O)[C@H](Cc2ccccc2)N(C)C1=O [DP-824] (cyclo(A[NMeL]I[NMeF][NMeV]FT[β3hA][NMeGABA])) |  |  |  | 501 µL/min/mg | 29 ×10⁻⁶ cm/s
CC(C)C[C@@H]1NC(=O)[C@@H](C(C)C)NC(=O)C[C@H](C)NC(=O)[C@H](CC(C)C)N(C)C(=O)[C@H](CC(C)C)N(C)C(=O)[C@H](Cc2ccc(C(F)(F)F)cc2)NC(=O)[C@H](C)N(C)C(=O)[C@H]([C@@H](C)O)NC1=O [DP-825] (cyclo(LT[NMeA][Phe(4-CF3)][NMeL][NMeL][β3hA][dV])) |  |  |  | 168 µL/min/mg | 39 ×10⁻⁶ cm/s

— patent US9409952B2, “Peptide-compound cyclization method” (Chugai Seiyaku Kabushiki Kaisha, priority 2011, dated 2016)
